Data published in patent publication EP4268823A1, “COMPOUND FOR TREATING NEUROINFLAMMATION” (Universitätsklinikum Hamburg-Eppendorf, priority 2022, dated 2023).

Assays:
[1] = tested on: primary neuronal cultures; test: Cytosolic calcium imaging of glutamate-exposed neuronal cultures; assay type: cell-based, mouse; conditions: UNC0642 pre-treatment plus ferroptosis inhibitor (ferrostatin-1)
Protocol: (§1) For primary cortical cultures pregnant C57BL/6J, or G9afl/fl;Snap25-Cre mice were euthanized. To ensure comparability between genotypes, only embryos from heterozygous breeding's were used. Brainstem tissue of each embryo for genotyping was reserved and cortices were isolated, dissociated and cells were plated at a density of 1 × 10^5 cells per 1 cm^2 on poly-D-lysine-coated wells (5 µM Sigma-Aldrich, cat. no. A-003-M). If not stated otherwise, cells were maintained in neurobasal plus medium (supplemented with B27 plus, penicillin, streptomycin and L-glutamine; Gibco, cat. no. A3582901) at 37°C, 5% CO^2 and a relative humidity of 98%, and treated with 1 µM cytarabine (Sigma-Aldrich, cat. no. BP383) at 1 day in vitro (div) to inhibit glial cell proliferation. If no cytarabine was applied cells were maintained in PNBM medium (supplemented with neural cell survival factor, gentamycin and L-glutamine; Lonza). Throughout, cultures after 14-23 div were used for experiments. G9a inhibitor UNC0642 was used in a concentration of 1 µM and cultures were pre-treated 24 hours before further experimental procedures.
Primary neuronal cultures were seeded on Ibidi 60 µ-Dish Quad (cat. No. 80411) plates. Cultures were infected with an AAV7 containing pAAV-Syn-GCamp6f-WPRE-SV40 (86) (Addgene 100837) at 7-10 div with a 20,000-fold multiplicity of infection (MOI). AAV particles were produced according to the standard procedures of the UKE vector facility. Images were acquired with a confocal LSM 700 laser scanning confocal microscope (Zeiss) every 0.48 seconds with a 20× magnification in an imaging chamber maintaining 37 °C and 5% CO2. Infected cultures were imaged in the respective culture medium. Before applying the indicated chemicals, 5-10 min of baseline activity was first recorded. At the end of the recording, 8 µM ionomycin was applied to induce the maximum cellular calcium response that was used for normalization. For data analysis, mean fluorescence values of every cell were measured using Fiji software (NIH) and normalized to the maximal calcium response after ionomycin challenge. For each cell, mean AUC of the calcium response was calculated using a custom R script.

[2] = tested on: ferroptosis-related genes; test: mRNA expression of ferroptosis-related genes in erastin-treated hiPSC-neurons; assay type: cell-based; conditions: erastin-treated human neurons ± UNC0642
Description: Human iPSCs (ZIPi013-B) (83) were maintained under feeder-free conditions on Matrigel (Corning)-coated plates in mTeSR1 medium (Stem Cell Technologies, cat. no. 85850). For neuronal induction, iPSCs were dissociated with Accutase and seeded at a density of 3 × 10^6 cells per well on AggreWell800 plates (10,000 cells per embryoid body (EB), Stem Cell Technologies) in SMADi Neural Induction Medium (SMADi NIM, Stem Cell Technologies, cat. no. 08582) supplemented with […] (Stem Cell Technologies, cat. no. 72302). On day 6, EBs were harvested and cultivated on Matrigel-coated plates in SMADi NIM for 12 days. Newly formed neural rosettes were manually picked and cultured for another 4 days. In order to release neural precursor cells (NPCs), neural rosettes were dissociated with Accutase and were maintained for several passages at high density in Neural Progenitor Medium (Stem Cell Technologies, cat. no. 05833) on Matrigel-coated plates. HiPSC-derived NPCs were differentiated into neurons as previously described (84, 85) with some modifications. Briefly, NPCs were seeded at a density of 1 × 10^5 cells per cm^2 in Neural Progenitor Medium onto Matrigel-coated plates. […]
RNA was extracted using RNeasy Mini Kit (Qiagen) and subsequently reverse-transcribed to complementary DNA with the RevertAid H Minus First Strand cDNA Synthesis Kit (Thermo Fisher Scientific) according to the manufacturer's instructions. Gene expression was analyzed by real-time PCR performed in an ABI Prism 7900 HT Fast Real-Time PCR System (Applied Biosystems) using TaqMan Gene Expression Assays (Thermo Fisher Scientific). Gene expression was calculated as 2-ΔCt relative to Tbp as the endogenous control.

[3] = tested on: primary cortical cultures; test: RealTime-Glo cell viability assay, glutamate excitotoxicity; assay type: cell-based, mouse; conditions: G9a-deficient neurons from G9afl/fl;Snap25-Cre mice treated with UNC0642; readout not stated
Protocol: as §1, with “G9a inhibitor UNC0642 was used in a concentration of 1 µM and cultures were pre-treated 24 hours before further experimental procedures.” left out
RealTime-Glo (Promega, cat. no. G9711) MT cell viability substrate and NanoLuc Enzyme was mixed together, added to neuronal cultures and incubated for 5 hours for equilibration of luminescence signal before respective treatments were applied. Luminescence was acquired with a Spark 10M multimode microplate reader (Tecan) at 37°C and 5% CO2 every 30 min over a total time period of 24 hours. […]

COc1cc2c(NC3CCN(C(C)C)CC3)nc(N3CCC(F)(F)CC3)nc2cc1OCCCN1CCCC1 [UNC0642, 2-(4,4-difluoropiperidin-1-yl)-6-methoxy-N-[1-(propan-2-yl)piperidin-4-yl]-7-[3-(pyrrolidin-1-yl)propoxy]quinazolin-4-amine]
potentiation of rescue effects of ferroptosis inhibition on glutamate-induced calcium overload [1]: did not further potentiate the rescue effects of ferroptosis inhibition | mRNA expression of GPX4 [2]: significant upregulation | mRNA expression of Gclc [2]: significant upregulation | mRNA expression of SLC7A11 [2]: highly upregulated | additional rescue effect during glutamate stress [3]: no additional rescue effect
